Experimental data taken from ChEMBL document CHEMBL4007495, “Substrate and inhibitor specificity of kynurenine monooxygenase from Cytophaga hutchinsonii” (Bioorg Med Chem Lett, 2017).
Activity calls are given as the source filed them. The calls are words filed in the database; no cut-off is given here.

What was measured:
[1] = Competitive inhibition of Cytophaga hutchinsonii KMO using 5-Br-kynurenine as substrate assessed as decrease in NADPH consumption by UV/Vis spectrophotometer
Cytophaga hutchinsonii [2] = test: Activity at Cytophaga hutchinsonii KMO assessed as NADPH consumption by UV/Vis spectrophotometer
Cytophaga hutchinsonii [3] = test: Activity at Cytophaga hutchinsonii KMO by ESI-LC/MS method
Cytophaga hutchinsonii [4] = test: Ratio of Kcat to Km for Cytophaga hutchinsonii KMO
Cytophaga hutchinsonii [5] = test: Activity at Cytophaga hutchinsonii KMO at 0.2 mM after 30 mins by HPLC method

Ki [1] [µM] | Km (Cytophaga hutchinsonii [2]) [µM] | kcat (Cytophaga hutchinsonii [2]) [s⁻¹] | kcat/Km (Cytophaga hutchinsonii [4]) | Compound | also measured
13.8 |  |  |  | Nc1c(Cl)cccc1C(=O)CC(N)C(=O)O (stereo not drawn) | 
8.6 |  |  |  | Cc1cccc(C(=O)CC(N)C(=O)O)c1N (stereo not drawn) | 
 | 4.5 | 0.6 | 1.3 ×10⁵ /M/s | Nc1ccc(Br)cc1C(=O)C[C@H](N)C(=O)O | Activity (Cytophaga hutchinsonii [3]): Active; Activity (Cytophaga hutchinsonii [5]): Active
 | 2 | 0.8 | 4 ×10⁵ /M/s | Nc1ccc(Cl)cc1C(=O)C[C@H](N)C(=O)O | 
 | 67 | 2 | 5.3 ×10⁴ /M/s | Nc1ccccc1C(=O)C[C@H](N)C(=O)O | 

The remaining lines, values behind:

Compound | Ki [1] [µM] | Km (Cytophaga hutchinsonii [2]) [µM] | kcat (Cytophaga hutchinsonii [2]) [s⁻¹] | kcat/Km (Cytophaga hutchinsonii [4]) | also measured
Nc1c(Cl)cc(Br)cc1C(=O)CC(N)C(=O)O (stereo not drawn) | 11 |  |  |  | 
COc1ccc(C(=O)NCC(=O)O)cc1OC | 1000 |  |  |  | 
O=C(O)CNC(=O)c1ccc(Cl)c(Cl)c1 | 34 |  |  |  | 
Cc1cc(Br)cc(C(=O)CC(N)C(=O)O)c1N (stereo not drawn) | 10.2 |  |  |  | 
Nc1c(Br)cc(Br)cc1C(=O)C[C@H](N)C(=O)O | 1.5 |  |  |  | 
